According to US12384792B2, “Solid forms of isoquinolinones, and process of making, composition comprising, and methods of using the same” (Twelve Therapeutics, Inc., priority 2015, dated 2025):
≈ marks a conversion by molar mass, not a printed value. Read-outs that look alike come from different tables or passages of the source. Values belong to the compound of their own block, whether it stands above or below them.

Experiments:
[1] = system: post-irradiated tumors; details: cited from earlier work
[2] = Kinetic solubility after 30 min in water and in 0.1M HCl; format: physicochemical; details: thermodynamic from solid, free base, 30 min, read-out: 30 min Kinetic solubility (pH), free base
From the text: See tables below for the summarized results.

[3] = Solubility of Compound 1 in acetonitrile/water during controlled crystallization; format: physicochemical
Method: An appropriate amount of acetonitrile/water were added to bring the solution to 80/20 v/v acetonitrile/water at 20 L/kg of Compound 1. The slurry was agitated and heated to 75° C. until all the Compound 1 was dissolved. The clear solution was polished filtered with a Zapcap filter (0.45 μm). The solution was put back into the reactor and cool down to 65° C.
The mixture was held under agitation at 22° C. for 2 hrs after the end of water addition.
20 L/kg of 80/20 v/v acetonitrile/water was added to Compound 1 solid charged into a reactor. The slurry was agitated and heated to 75° C. until all Compound 1 was dissolved. The clear solution was polish filtered with a Zapcap filter (0.45 μm). The solution was put back into the reactor and cooled down to 65° C.

[4] = system: PI3 kinase (e.g., PI3K-delta); details: in vitro; cited from earlier work
[5] = system: PI3 kinase (e.g., PI3K-delta); details: smoking mice in vivo; cited from earlier work
[6] = system: non-small-cell lung cancer, melanoma, and renal-cell cancer; details: clinical trial with a total of 296 patients; cited from earlier work

Compound: c1cc(CN2CCCNCCNCCCNCC2)ccc1CN1CCCNCCNCCCNCC1 [AMD3100]
tumor vasculogenesis and tumor regrowth [1]: blocked

solubility kinetic at 30 min ([2]; 0.1M HCl, pH 1.5, simulated gastric fluid, in 0.1M HCl, pH 1.5 and 1.3): 10 µg/mL (≈ 0.0189 mM)
solubility kinetic at 30 min ([2]; water, pH 7.1, water, in water (footnote *), pH 7.1 and 6.8): 10 µg/mL (≈ 0.0189 mM)
solubility ([3]; aqueous with cosolvent or surfactant or cyclodextrin, 40/60 v/v acetonitrile/water, 22° C.): ~3 mg/mL (≈ 5.68 mM)
solubility ([3]; organic solvent or mixture, 80/20 v/v acetonitrile/water, 22° C.): ~18 mg/mL (≈ 34.1 mM)
solubility ([3]; organic solvent or mixture, 80/20 v/v acetonitrile/water, 65° C.): ~50 mg/mL (≈ 94.6 mM)
Compound: C[C@H](NC(=O)c1c(N)nn2cccnc12)c1cc2cccc(C#Cc3cnn(C)c3)c2c(=O)n1-c1ccccc1 [Compound 1, (S)-2-amino-N-(1-(8-((1-methyl-1H-pyrazol-4-yl)ethynyl)-1-oxo-2-phenyl-1,2-dihydroisoquinolin-3-yl)ethyl)pyrazolo[1,5-a]pyrimidine-3-carboxamide]

Compound: Cn1c(=O)c2[nH]cnc2n(C)c1=O [Theophylline, theophylline]
histone deacetylase-2 and corticosteroid sensitivity [4]: increases
histone deacetylase-2 and corticosteroid sensitivity [5]: increases

Compound: nivolumab: fully human IgG4 monoclonal antibody which specifically blocks PD1
response in non-small-cell lung cancer, melanoma, and renal-cell cancer [6]: complete or partial responses
